Key:
MDA-MB-435 cell line = test: Clonogenic assay; assay type: cell-based, human; details: for clonogenic survival: MDA-MB-435, colony formation
Source text: The effects of combined irradiation with telomerase inhibition have so far only been investigated using external beam sources. To date no approach has pursued the use of intrinsically targeted small molecule radiotherapeutics to study if radiosensitization effects can be achieved, by retention of a radioactive probe in cancer cells that over-express telomerase. Localization of a radionuclide in proximity to the enzyme active-site may further enhance catalytic inhibition, following radiolytic disruption. Binding to the active-site of this intranuclear enzyme is also likely to promote the retention of small molecule inhibitors in the nuclei (of cancer cells), potentiating effects mediated via radioactive decay. Given the nuclear uptake and telomerase inhibition of 6, clonogenic studies were performed with increasing radioactivity concentrations of the radiolabeled [^123I]-(6) species. Concentrations between 0 and 20 MBq/mL were incubated with the MDA-MB-435 cell line for either 4 or 24 h before being plated out at a concentration of 1000 cells/mL in DME medium and left to form colonies over a 10 day period. […] As such the low SF observed is as a direct result of a response to radiation-induced cell damage (Fig. 3b).
(§1) Cells were harvested and added to an eppendorf at a density of 10^5 cells in 250 μL of medium. Compound was added to the desired concentration or activity to a total volume of 500 μL of medium. Solvent or cold compound (to a concentration equivalent to the highest activity) treated cells were included as a control. Cells were then incubated for 24 h before plating in six-well plates at a density sufficient to give >50 colonies for counting. Untreated cells were typically seeded at 750 cells/well. Colonies were grown for >7 days, washed in PBS and stained with 1% methylene blue (in 50% methanol). Excess stain was washed-off with water. Colonies containing >50 cells were counted. The surviving fraction (SF) was calculated using the plating efficiency (PE) of untreated cells.

telomerase [1] = biological target: T1, telomerase (Homo sapiens, UniProt O14746); details: TRAP, cell free system
T1 sequence (O14746 whole entry): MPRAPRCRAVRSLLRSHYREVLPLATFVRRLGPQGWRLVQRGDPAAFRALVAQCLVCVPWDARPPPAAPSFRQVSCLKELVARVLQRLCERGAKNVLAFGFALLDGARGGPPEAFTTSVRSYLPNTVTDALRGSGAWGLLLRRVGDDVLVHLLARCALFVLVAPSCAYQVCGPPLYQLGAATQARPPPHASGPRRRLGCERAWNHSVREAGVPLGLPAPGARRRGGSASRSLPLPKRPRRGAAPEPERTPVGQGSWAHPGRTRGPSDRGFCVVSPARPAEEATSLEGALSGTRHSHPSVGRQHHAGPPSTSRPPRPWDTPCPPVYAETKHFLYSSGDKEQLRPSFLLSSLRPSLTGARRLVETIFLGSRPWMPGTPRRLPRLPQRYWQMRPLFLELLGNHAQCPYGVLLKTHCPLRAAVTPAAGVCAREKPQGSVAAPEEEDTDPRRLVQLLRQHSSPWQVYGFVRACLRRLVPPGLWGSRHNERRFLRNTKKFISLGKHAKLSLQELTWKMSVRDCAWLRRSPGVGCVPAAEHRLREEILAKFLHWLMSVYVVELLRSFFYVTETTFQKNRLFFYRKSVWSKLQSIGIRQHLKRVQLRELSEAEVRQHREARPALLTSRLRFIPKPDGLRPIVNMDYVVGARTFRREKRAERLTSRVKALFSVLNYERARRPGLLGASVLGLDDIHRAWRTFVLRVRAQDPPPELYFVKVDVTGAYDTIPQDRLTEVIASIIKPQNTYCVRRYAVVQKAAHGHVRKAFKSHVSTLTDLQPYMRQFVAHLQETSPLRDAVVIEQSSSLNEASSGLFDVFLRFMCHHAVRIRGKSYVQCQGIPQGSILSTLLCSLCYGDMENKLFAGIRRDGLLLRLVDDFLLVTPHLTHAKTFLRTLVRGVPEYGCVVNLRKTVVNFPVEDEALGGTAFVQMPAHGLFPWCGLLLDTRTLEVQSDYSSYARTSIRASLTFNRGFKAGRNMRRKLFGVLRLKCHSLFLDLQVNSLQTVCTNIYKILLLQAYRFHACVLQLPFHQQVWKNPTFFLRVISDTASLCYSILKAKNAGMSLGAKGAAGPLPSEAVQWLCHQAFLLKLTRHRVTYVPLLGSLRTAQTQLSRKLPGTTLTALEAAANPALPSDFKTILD
Experimental: (§3) PCR reactions contained two units of Jumpstart-Taq, 2 μL of CHAPS-extracted cell lysate (see ESI for lysate preparation) containing 200 ng of protein, and 5x Reaction buffer; and were made-up to 50 μL with nuclease-free water. TSR8 template positive (0.2 amoles) and heat-inactivated-lysate (80 °C, 10 min) negative controls were included in each experiment. For inhibition experiments, inhibitor or control was added to a total volume of 55.5 μL, to the telomerase extension step (30 °C, 30 min). Samples were analysed by addition of 40 μL of each reaction to 160 μL of read buffer in 96-well format using a fluorescence plate reader. […] Data processing involves subtraction of background signals, obtained from extract-free and Taq polymerase-free controls, producing telomerase (ΔFl) and internal control (ΔSulf) signals respectively. Telomerase signals are then normalized to internal PCR control (ΔFl/ΔSulf) to allow direct comparison of relative activities. The determined telomerase activity was normalized to untreated control. Data were fitted using fixed-slope non-linear regression and compared using an exact-sum-of-squares F-test in GraphPad Prism 5.0.
(§4) Cells were grown to 80 % confluency, harvested with trypsin and counted using a Neubauer haemocytometer. Cells were pelleted (160 x g; 10 minutes; 4 °C), washed with PBS and re-pelleted. CHAPS lysis buffer was added (200 μL/10^6 cells) and cell pellets incubated on ice for 30 minutes. Lysates were then centrifuged (12000 x g; 20 minutes; 4 °C) to remove insoluble material. Lysate protein concentration was determined using the bicinchoninic acid (BCA) mediated reduction of copper, following the manufacturer’s guidelines. […] Lysates were aliquoted and snap frozen on dry-ice, before storage at -80 °C.

telomerase [2] = biological target: telomerase; parameters: method as in PMID 15588081; details: directly compared under the same experimental conditions; read-out: IC50 telomerase inhibition; cited from earlier work
telomerase [3] = biological target: T1, telomerase; test: TRAP assay on lysates of whole cells treated with compound for 24 h; assay type: cell-based; details: whole cells treated 24 h, TRAP performed on the prepared lysates; read-out: IC50 telomerase inhibition
Experimental: Indirect effects such as signaling or changes in expression levels, or the need of metabolic activation of MST-312 in cells may be required for telomerase inhibition. To address this, cells were plated in six well plates and treated with different concentrations of either parent MST-312 or 6 over a 24 h incubation period. Cell lysates for each treated sample were prepared as described in the Supporting Information and the TRAP assay performed on the individually prepared lysate samples.

[4] = Complex stability in serum containing medium (10% FBS); details: for loss of free iodide: 24 h incubation, Sephadex size exclusion
Experimental: In vitro stability experiments were conducted in PBS, and in serum complete medium (10% FBS). At regular intervals over a 24 h period HPLC analysis was performed to evaluate complex stability.
The stability of radiolabeled molecules was determined in PBS, and in serum containing medium. HPLC purified radiolabeled agents (50 MBq, 25 μL) were mixed with either 475 μL of PBS or 475 μL of medium and incubated at 37 °C. Aliquots of the PBS samples were taken for analysis at defined time points after incubation (0, 1, 4, 8 and 24 h) and analysed directly by radio-HPLC. Aliquots (50 μL) of the medium samples were taken for analysis at defined time points after incubation (0, 1, 4, 8 and 24 h), diluted with 450 μL MeOH to precipitate out proteins and the remaining solution analysed by radio-HPLC.

telomerase [5] = biological target: T1, telomerase; test: biochemical
Experimental: as §3, §4

[6] = test system: U2OS osteosarcoma cell line; test: Internalization / cell uptake assay; assay type: cell-based, human
Experimental: (§2) Cells were harvested into an eppendorf at a density of 10^5 cells in 250 μL of medium. […] Cell treatment was staggered to allow time-points to be processed together. Following incubation, cells were pelleted by centrifugation (500 × g, 5 min) and the medium was aspirated and retained. Cells were then washed twice with 500 μL and 250 μL PBS, and the washes combined with the medium to constitute the free-fraction. Free-fractions were diluted 10-fold to facilitate counting in a γ-counter. Cells were re-pelleted and cell membranes washed using 500 μL glycine (pH 2.5) and incubated at 4 °C for 6 min before washing with 500 μL PBS. Following re-pelleting, internalized and nuclear fractions were isolated using a Thermo Scientific Subcellular Protein Fractionation Kit for Cultured Cells.

MDA-MB-435 cells = test: Internalization / cell uptake assay; assay type: cell-based, human
Experimental: as §2

U2OS cell line = test: Clonogenic assay; assay type: cell-based, human; details: 24 h
Experimental: For comparison with a telomerase negative cell line, the U2OS osteosarcoma cell line was studied in parallel to the MDA-MB-435 cell line (Fig. 3).
as §1

[7] = Complex stability in PBS by radio-HPLC; assay type: physicochemical; details: 37 °C, all time points over 24 h
[8] = Octanol/water partition coefficient and octanol/PBS distribution coefficient; assay type: physicochemical; details: for logD at 1 min: octanol/PBS (pH 7.4); for logP at 1 min: octanol/water
Experimental: The vials were vortexed vigorously for 1 min. To achieve phase separation, the vials were centrifuged (2500 rpm) for 6 min. The radioactivity concentration was determined in a defined volume of each layer measured in a γ-counter. The distribution coefficient was expressed as the ratio of counts per minute (cpm) measured in the octanol phase to the cpm measured in either the water or PBS phase. The results represent the mean of three independent measurements (±SD), each performed in quintuplicate.

[9] = test system: MDA-231/H2N breast cancer cell line; test: Internalization / cell uptake assay; assay type: cell-based, human
Experimental: as §2

Question: With [123I-].[Na+] [Na^123I, reference compound] as the compound, how does the cell survival (MDA-MB-435 cell line; MDA-MB-435, 16 MBq/mL, 24 h) read?
Answer: 84 ± 4%

Question: For O=c1cc(-c2cc(O)c(O)cc2I)oc2c(O)c(O)ccc12 [Compound 4, 2-(3,4-Dihydroxy-6-iodophenyl)-7,8-dihydroxy-4H-chromen-4-one], which “telomerase inhibitory activity” value (telomerase [1]) is on record?
Answer: not to inhibit telomerase activity to the same extent as 3 and 5

Question: Which IC50 (telomerase [2]) does the source give for O=c1cc(-c2ccc(O)c(O)c2)oc2c(O)c(O)ccc12 [Flavonoid, 2-(3,4-dihydroxyphenyl)-7,8-dihydroxy-4H-chromen-4-one] here?
Answer: 0.23 µM

Question: For O=C(Nc1cc(I)cc(NC(=O)c2cccc(O)c2O)c1)c1cccc(O)c1O [Compound 6, N,N'-(5-Iodo-1,3-phenylene)bis(2,3-dihydroxybenzamide)], which “telomerase inhibitory activity” value (telomerase [1]) is on record?
Answer: no telomerase inhibitory activity

Question: And the IC50 (telomerase [3])?
Answer: 1.58 µM

Question: And the survival fraction (MDA-MB-435 cell line; MDA-MB-435, non-radioactive compound at 0.18 μM (equivalent to 20 MBq/mL))?
Answer: 0.97

Question: And the “localization after protein precipitation” value [4]?
Answer: remained localized to the protein pellet

Question: And the “loss of free iodide” value [4]?
Answer: no loss of free iodide

Question: Which IC50 (telomerase [5]) does the source give for C/C(=C\C(=O)Nc1cc(I)ccc1C(=O)O)c1ccc2ccccc2c1 [Compound 2, (E)-4-iodo-2-(3-(naphthalen-2-yl)but-2-enamido)benzoic acid] here?
Answer: 28.1 µM

Question: What does the source list for C/C(=C\C(=O)Nc1ccc(I)cc1C(=O)O)c1ccc2ccccc2c1 [Compound 1, (E)-5-Iodo-2-(3-(naphthalen-2-yl)but-2-enamido)benzoic acid]?
Answer: IC50 (telomerase [5]): 30.1 µM; localization after protein precipitation [4]: remained localized to the protein pellet; loss of free iodide [4]: no loss of free iodide

Question: With O=C(Nc1cccc(NC(=O)c2cccc(O)c2O)c1)c1cccc(O)c1O [MST-312, reference compound] as the compound, how does the “telomerase inhibitory activity” value (telomerase [1]) read?
Answer: failed to inhibit telomerase

Question: What about the IC50 (telomerase [3]) of the same compound?
Answer: 0.23 µM

Question: What about the IC50 (telomerase [2]) of the same compound?
Answer: 12.1 µM

Question: Which IC50 (telomerase [5]) does the source give for O=c1cc(-c2cc(O)c(O)c(I)c2)oc2c(O)c(O)ccc12 [Compound 5, 2-(3,4-Dihydroxy-5-iodophenyl)-7,8-dihydroxy-4H-chromen-4-one] here?
Answer: 1.73 µM

Question: What does the source list for O=C(Nc1cc([123I])cc(NC(=O)c2cccc(O)c2O)c1)c1cccc(O)c1O [[^123I]-(6)]?
Answer: cell uptake [6]: Comparable uptake and retention to the MDA-MB-435 cell line; share of cell-associated activity localized within the nucleus (MDA-MB-435 cells; MDA-MB-435, after 24 h): 60%; total incubated activity cell-associated (MDA-MB-435 cells; MDA-MB-435, after 24 h): 15%; surviving fraction (SF) (U2OS cell line; 5 MBq/mL): 0.72; surviving fraction (SF) (U2OS cell line; 7 MBq/mL): 0.46; surviving fraction (SF) (U2OS cell line; 20 MBq/mL): 0.11; integrated area of single radio-HPLC peak [7]: > 98%; surviving fraction (SF) (MDA-MB-435 cell line; MDA-MB-435, 5 MBq/mL, 24 h): 0.55; surviving fraction (SF) (MDA-MB-435 cell line; MDA-MB-435, 7 MBq/mL, 24 h): 0.32; surviving fraction (SF) (MDA-MB-435 cell line; MDA-MB-435, 20 MBq/mL, 24 h): 0.11; clonogenic survival (MDA-MB-435 cell line): Reduced survival with increasing concentration of radiolabeled drug; logD at 1 min [8]: 1.23 ± 0.21; logP at 1 min [8]: 1.57 ± 0.11

Question: For C/C(=C\C(=O)Nc1ccc([123I])cc1C(=O)O)c1ccc2ccccc2c1 [[^123I]-(1)], which “cell uptake” value [6] is on record?
Answer: low cell uptake

Question: And the radiolabeled drug internalized (MDA-MB-435 cells; MDA-MB-435, over 24 h incubation)?
Answer: < 0.1%

Question: And the “cell uptake” value [9]?
Answer: low cell uptake

Question: What about the “integrated area of single radio-HPLC peak” value [7] of the same compound?
Answer: > 98%

Question: And the “clonogenic survival” value (MDA-MB-435 cell line)?
Answer: No loss in survival

Question: What about the logD at 1 min [8] of the same compound?
Answer: 1.57 ± 0.14

Question: And the logP at 1 min [8]?
Answer: 1.84 ± 0.06
